Experimental data published in PMC9149975, “The diaryl-imidazopyridazine anti-plasmodial compound, MMV652103, exhibits anti-breast cancer activity” (EXCLI Journal, 2022).
Like-named read-outs stand apart in the source and are kept apart here.

Experiments:
MCF7 cells [1] = assay: Clonogenic survival assay, MCF7; format: cell-based, human; conditions: IC50, 2 x IC50, 4 x IC50 for 24 h
Procedure: (§1) Cells were pre-cultured and treated with the indicated concentrations of MMV652103 for 24 h, washed, collected and re-plated, in drug-free medium, at 1000-2000 cells per well in 35 mm dishes, in triplicate. After 10-21 days the surviving cells were fixed with 3:1 methanol: acetic acid and stained with 0.5 % crystal violet (Sigma-Aldrich, USA) in 100 % methanol. Quantification of colonies was performed using ImageJ 1.5J8 software (USA) (Schneider et al., 2012[73]). Number of colonies was determined for each drug concentration and expressed as a percentage of the vehicle treated control.

MCF7 cells [2] = assay: Western blotting / immunofluorescence, MCF7; format: cell-based, human
Procedure: Cells were exposed to MMV652103 or vehicle for 24 and 48 h. Cell lysates were prepared, and western blotting performed as previously described (Abrahams et al., 2008[1]). Primary antibodies were: PARP1/2 (sc-7150, 1:1000), p53 (sc-126, 1:1000), p21 (sc-756, 1:1000), cyclin B1 (H-433) (sc-752, 1:500) from Santa Cruz (California, USA), phospho-H2AX (#2577, 1:1000), phospho-p38 MAP Kinase (#9211, 1:1000), LC3 (#2775, 1:1000), caspase-7 (#9492, 1:1000), caspase-8 (#9746, 1:1000), caspase-9 (#9502S, 1:1000), from Cell Signaling (Boston, MA, USA), PUMA (ab9643, 1:1000) (AbCam, Cambridge, MA, USA) and p38 (M0800, 1:5000) from Sigma (St. Louis, MO, USA). Total p38 was used as a loading control because although its activity is modulated by phosphorylation, its total levels remain unaltered in response to stimuli (Raingeaud et al., 1995[68]). Densitometry readings were obtained using ImageJ v1.50i58 and protein expression levels were represented as a ratio of protein of interest/p38 loading control normalized to the vehicle treated control sample where appropriate. All blots are representative of at least three independent experiments.
Cells on glass coverslips were treated with either MMV652103 or vehicle for 24 and 48 h and processed for immunofluorescence with antibodies against phospho H2A.X (#2577) (1:500) or LC3B (#2775) (1:200) (Cell Signaling Technology) as previously described (Bleloch et al., 2019[8]). Cells were imaged using confocal microscopy (Carl Zeiss LSM 880 with Fast Airyscan module confocal (Oberkochen, Germany)). Multiple z layers were acquired with […] step width. Images were processed using ZEN 2012 imaging software (Carl Zeiss) and maximum intensity projections were generated. For quantification, mean fluorescence was measured from at least 20 fields of view per treatment condition and pooled from three independent replicates.

[3] = system: BT474 (HER2+) breast cancer cells; assay: MTT cytotoxicity assay, BT474; format: cell-based; conditions: Homo sapiens, BT-474
Procedure: Human estrogen-receptor positive (ER+) breast adenocarcinoma cell lines, MCF7 and T47D, were maintained in Roswell Park Memorial Institute-1640 medium (Sigma Aldrich, Missouri, USA) and the human epidermal growth factor receptor 2 positive (HER2+) BT474, and triple negative (TNBC) MDA-MB-231 and MDA-MB-468 cells were maintained in Dulbecco's Modified Eagle's Medium (DMEM) (Sigma Aldrich, Missouri, USA). […]
Cells (3.5×10^3-6×10^3 / well) were seeded in 96-well plates and treated at a 60-70 % confluence with a range of concentrations (0-10 μM) of test compounds or vehicle for 48 h. Cell viability was measured using the 3-(4,5-dimethylthiazol-2-yl)-2,5-diphenyl-trazolium bromide (MTT) assay (11465007001; Sigma Aldrich) according to the manufacturer's instructions. Mean cell viability was calculated as a percentage of the mean vehicle control. A minimum of three independent experiments in quadruplicate were performed from which the IC50 was determined from sigmoidal plots using GraphPad Prism version 6.0 (GraphPad Software, California, USA). The selectivity index (SI) was determined by dividing the IC50 of a non-malignant cell line by the IC50 of a cancer cell line.

T47D cells = assay: Clonogenic survival assay, T47D; format: cell-based, human; conditions: IC50, 2 x IC50, 4 x IC50 for 24 h
Procedure: as §1

chick embryos = assay: Chick embryo CAM model: toxicity to the embryo; format: in vivo; conditions: 4.4 μM and 22 μM
From the text: At stage E9, the chorioallantoic membrane (CAM) was dropped by drilling a small hole through the eggshell into the air sac and a 1 cm^2 window was cut in the eggshell above the CAM. Cultured MCF7 cells were detached with trypsin, washed with complete medium and suspended in PBS. […] At E18 the upper portion of the CAM was removed, transferred to PBS and the tumors cut away from normal CAM tissue and weighed. A one-way ANOVA analysis with post-tests was done. In parallel, a 1 cm^2 portion of the lower CAM was collected to evaluate the number of metastatic cells. The relative amount of metastasis was calculated as follows: Tumor cells were grafted onto the upper chorioallantoic membrane (CAM) and during metastasis the cells invade the epithelium and basement membrane of the upper CAM and move through connective tissue into the vasculature into the lower CAM. The cells in the lower CAM are then harvested and genomic DNA is extracted and analyzed by qPCR with specific primers for Alu sequences which are only found in higher primates i.e. it allows for the distinction between human tumor cells and the host chick cells. Statistical analysis was directly performed on data from the Bio-Rad CFX Manager 3.1 software.

MCF7 cells [4] = assay: Cell cycle analysis by flow cytometry; format: cell-based, human; conditions: IC50, 24 and 48 h
Procedure: Log-phase MCF7 cells were exposed to MMV652103 for 24 and 48 h and both adherent and floating cells were collected, processed as previously described and analyzed using a Becton Dickinson FACSCalibur flow cytometer (Becton Dickinson, New Jersey, USA) with a 488 nm coherent laser (Bleloch et al., 2019[8]). The data were acquired using CellQuest Pro version 5.2.1. software (Becton Dickinson) and the analyses were done using ModFit version 2.0. software (Verity Software House Inc, Maine, USA).

## CS(=O)(=O)c1ccc(-c2cnc3ccc(-c4cccc(S(C)(=O)=O)c4)nn23)cc1 [MMV652103]
MCF7 cells [1]
  number of MCF7 cell colonies: dose-dependent reduction
MCF7 cells [2]; western blot
  LC3 to LC3II conversion: led to the conversion of LC3 to LC3II
  cyclin A and cyclin B1 levels: reduced
  levels of p53, MCF7: dose- and time-dependent increase
  levels of phosphorylated p38, MCF7: increased
  p21 levels, MCF7: increased
MCF7 cells [2]; ½ IC50 and IC50, 24 and 48 h
  levels of γH2AX, MCF7: dose- and time-dependent increase
MCF7 cells [2]; ½ IC50 and IC50, western blot
  levels of PUMA, cleaved caspase-8, caspase-9, caspase-7 and PARP: increased levels
[3]; Fig 2C summary, MTT 48 h, read-out: IC50 ± SEM BT474
  IC50: 7.3 ± 1.05 µM
[3]; MTT, 48 h, read-out: IC50 BT474
  IC50: 7.3 µM
T47D cells
  number of T47D cell colonies: dose-dependent reduction
Chick embryos
  death ratio of chick embryos: did not result in an abnormal death ratio
Chick embryos; results not shown
  macroscopic abnormalities of chick embryos: nor did it lead to any macroscopic abnormalities
MCF7 cells [4]
  effect on MCF7 cell cycle progression: induced sub-G1 peaks and arrested cells in G1
